Data reported in ChEMBL document CHEMBL3885881, “DrugMatrix”.

Species: Rattus norvegicus
Experiment: DrugMatrix - Regimen: Daily Repeat
Assay type: toxicity, organism-based, Sprague-Dawley
Design: regimen Daily Repeat, gender Male, age 6-8 weeks
Conditions: in vivo, po, route oral GAVAGE, […]; for ABSOLUTE BASOPHIL / ABSOLUTE EOSINOPHIL / ABSOLUTE LYMPHOCYTE / ABSOLUTE MONOCYTE / ABSOLUTE SEGMENTED NEUTROPHIL / BASOPHIL / EOSINOPHIL / ERYTHROCYTE COUNT / HEMATOCRIT / HEMOGLOBIN / LEUKOCYTE COUNT / LYMPHOCYTE / MEAN CORPUSCULAR HEMOGLOBIN / MEAN CORPUSCULAR HEMOGLOBIN CONCENTRATION / MEAN CORPUSCULAR VOLUME / MONOCYTE / NEUTROPHIL / NUCLEATED RED BLOOD CELLS / PLATELET COUNT: tissue Blood; for ALANINE AMINOTRANSFERASE / ALBUMIN / ALKALINE PHOSPHATASE / ASPARTATE AMINOTRANSFERASE / BLOOD UREA NITROGEN / CARBON DIOXIDE / CHLORIDE / CHOLESTEROL / CREATINE PHOSPHOKINASE / CREATININE / GLUCOSE / LACTATE DEHYDROGENASE / LIPASE / PHOSPHORUS / POTASSIUM / SODIUM / TOTAL BILIRUBIN / TOTAL PROTEIN / URIC ACID: tissue Plasma
[1] = 80 mg/kg, 120 h, dose level Low, time 5 day
[2] = 338 mg/kg, 72 h, dose level High, time 3 day
[3] = 338 mg/kg, 120 h, dose level High, time 5 day

## CC(C)(Oc1ccc(C2CCCc3ccccc32)cc1)C(=O)O (centres undefined) [NAFENOPIN]
[1]
  ABSOLUTE BASOPHIL: 0 CELLS/uL
  ABSOLUTE EOSINOPHIL: 0 CELLS/uL
  ABSOLUTE LYMPHOCYTE: 12561 CELLS/uL
  ABSOLUTE MONOCYTE: 516.67 CELLS/uL
  ABSOLUTE SEGMENTED NEUTROPHIL: 1089 CELLS/uL
  BASOPHIL: 0%
  EOSINOPHIL: 0%
  ERYTHROCYTE COUNT: 5.43 x10E6/uL
  HEMATOCRIT: 32.67%
  HEMOGLOBIN: 12.23 G/DL
  LEUKOCYTE COUNT: 14.17 x10E3/uL
  LYMPHOCYTE: 88.67%
  MEAN CORPUSCULAR HEMOGLOBIN: 22.57 pg
  MEAN CORPUSCULAR HEMOGLOBIN CONCENTRATION: 37.5 G/DL
  MEAN CORPUSCULAR VOLUME: 60.17 fL
  MONOCYTE: 3.67%
  NEUTROPHIL: 7.67%
  NUCLEATED RED BLOOD CELLS: 0 /100WBC
  PLATELET COUNT: 828.67 x10E3/uL
  ALANINE AMINOTRANSFERASE: 61.67 u/L
  ALBUMIN: 5.07 G/DL
  ALKALINE PHOSPHATASE: 578 u/L
  ASPARTATE AMINOTRANSFERASE: 85.33 u/L
  BLOOD UREA NITROGEN: 14.33 mg/dL
  CARBON DIOXIDE: 32 mmol/L
  CHLORIDE: 97 MEQ/L
  CHOLESTEROL: 65.33 mg/dL
  CREATINE PHOSPHOKINASE: 403.67 u/L
  CREATININE: 0.25 mg/dL
  GLUCOSE: 148.67 mg/dL
  LACTATE DEHYDROGENASE: 257.33 u/L
  LIPASE: 9.67 u/L
  PHOSPHORUS: 13.43 mg/dL
  POTASSIUM: 6.96 MEQ/L
  SODIUM: 142.07 MEQ/L
  TOTAL BILIRUBIN: 0.13 mg/dL
  TOTAL PROTEIN: 6.07 G/DL
  URIC ACID: 1.23 mg/dL
[2]
  ABSOLUTE BASOPHIL: 0 CELLS/uL
  ABSOLUTE EOSINOPHIL: 40.33 CELLS/uL
  ABSOLUTE LYMPHOCYTE: 10009.33 CELLS/uL
  ABSOLUTE MONOCYTE: 484 CELLS/uL
  ABSOLUTE SEGMENTED NEUTROPHIL: 1499.67 CELLS/uL
  BASOPHIL: 0%
  EOSINOPHIL: 0.33%
  ERYTHROCYTE COUNT: 5.41 x10E6/uL
  HEMATOCRIT: 32.97%
  HEMOGLOBIN: 12.87 G/DL
  LEUKOCYTE COUNT: 12.03 x10E3/uL
  LYMPHOCYTE: 83.33%
  MEAN CORPUSCULAR HEMOGLOBIN: 23.77 pg
  MEAN CORPUSCULAR HEMOGLOBIN CONCENTRATION: 39.03 G/DL
  MEAN CORPUSCULAR VOLUME: 60.93 fL
  MONOCYTE: 4%
  NEUTROPHIL: 12.33%
  NUCLEATED RED BLOOD CELLS: 0 /100WBC
  PLATELET COUNT: 1008 x10E3/uL
  ALANINE AMINOTRANSFERASE: 113 u/L
  ALBUMIN: 4.73 G/DL
  ALKALINE PHOSPHATASE: 921 u/L
  ASPARTATE AMINOTRANSFERASE: 143 u/L
  BLOOD UREA NITROGEN: 13.67 mg/dL
  CARBON DIOXIDE: 22 mmol/L
  CHLORIDE: 104 MEQ/L
  CHOLESTEROL: 59.67 mg/dL
  CREATINE PHOSPHOKINASE: 584.33 u/L
  CREATININE: 0.7 mg/dL
  GLUCOSE: 143.67 mg/dL
  LACTATE DEHYDROGENASE: 415.33 u/L
  LIPASE: 10 u/L
  PHOSPHORUS: 12.27 mg/dL
  POTASSIUM: 6.14 MEQ/L
  SODIUM: 143.63 MEQ/L
  TOTAL BILIRUBIN: 0.2 mg/dL
  TOTAL PROTEIN: 5.63 G/DL
  URIC ACID: 1.23 mg/dL
[3]
  ABSOLUTE BASOPHIL: 0 CELLS/uL
  ABSOLUTE EOSINOPHIL: 38 CELLS/uL
  ABSOLUTE LYMPHOCYTE: 11719.67 CELLS/uL
  ABSOLUTE MONOCYTE: 400 CELLS/uL
  ABSOLUTE SEGMENTED NEUTROPHIL: 1175.67 CELLS/uL
  BASOPHIL: 0%
  EOSINOPHIL: 0.33%
  ERYTHROCYTE COUNT: 5.3 x10E6/uL
  HEMATOCRIT: 30.47%
  HEMOGLOBIN: 11.43 G/DL
  LEUKOCYTE COUNT: 13.33 x10E3/uL
  LYMPHOCYTE: 88%
  MEAN CORPUSCULAR HEMOGLOBIN: 21.6 pg
  MEAN CORPUSCULAR HEMOGLOBIN CONCENTRATION: 37.53 G/DL
  MEAN CORPUSCULAR VOLUME: 57.53 fL
  MONOCYTE: 3%
  NEUTROPHIL: 8.67%
  NUCLEATED RED BLOOD CELLS: 0 /100WBC
  PLATELET COUNT: 850.67 x10E3/uL
  ALANINE AMINOTRANSFERASE: 87 u/L
  ALBUMIN: 4.73 G/DL
  ALKALINE PHOSPHATASE: 891.33 u/L
  ASPARTATE AMINOTRANSFERASE: 88.67 u/L
  BLOOD UREA NITROGEN: 12.67 mg/dL
  CARBON DIOXIDE: 29 mmol/L
  CHLORIDE: 98 MEQ/L
  CHOLESTEROL: 96.67 mg/dL
  CREATINE PHOSPHOKINASE: 209.67 u/L
  CREATININE: 0.65 mg/dL
  GLUCOSE: 129.67 mg/dL
  LACTATE DEHYDROGENASE: 216.67 u/L
  LIPASE: 10 u/L
  PHOSPHORUS: 12.7 mg/dL
  POTASSIUM: 6.55 MEQ/L
  SODIUM: 143.43 MEQ/L
  TOTAL BILIRUBIN: 0.23 mg/dL
  TOTAL PROTEIN: 5.67 G/DL
  URIC ACID: 1.3 mg/dL
